# Test results reported in patent publication US7414078B2, “Oral general anesthetics and metabolitically resistant anticonvulsants” (University of Virginia Patent Foundation, priority 2001, dated 2008).
# Marks after values point to notes of the source that are not given here.
# Legend:
# [1] = tested on: pentylenetetrazol-induced seizures (scMet); experiment: Subcutaneous pentylenetetrazol seizure threshold (scMet) test, mice i.p. (NIH); type: in vivo; details: for SCMET, animals protected/animals tested: mice i.p.
# Procedure: (§1) 300 mg of each compound was synthesized and sent to the National institute of Health's Anticonvulsant Screening Project of the Antiepileptic Drug Discovery Program. NIH performs anticonvulsant testing (oral and intraperitoneal, i.p.) on both mice and rats in phase I trials. The grand mal model is conducted with a maximal electroshock (MES) test, where corneal electrode implants are primed with a drop of electrolyte solution and an electrical stimulus is delivered for 0.2 second. The model examines the compounds' ability to stop the spread of seizures. The petite mal model is conducted with a subcutaneous pentylenetetrazol seizure threshold (scMet) test. The animals are injected with a convulsant dose of pentylenetetrazol at the peak effect time of the compound. This model measures the compounds' threshold for seizures. A toxicity test (TOX) is performed where the animals walk on a spinning rod for varying lengths of time to check for the loss of righting reflex or other toxic effects.
# [2] = tested on: seizures induced by maximal electroshock (MES); experiment: Maximal electroshock (MES) test, mice i.p. (NIH); type: in vivo; details: for MES, animals protected/animals tested: mice i.p.; for MES, mice protected: phase I i.p. mice
# Procedure: as §1
# [3] = tested on: Isoflurane anesthesia (minimum alveolar concentration, MAC); experiment: General anesthesia test: reduction of isoflurane MAC after i.p. compound; type: in vivo, rats; details: for anesthetic activity: rat, in vivo; for MAC value of Isoflurane at 60 mg/kg of compound / Percent Reduction in Isoflurane: rats; for MAC value of Isoflurane at 60 mg/kg of compound: 60 mg/kg i.p. in peanut oil, 1.2% isoflurane generates 100% anesthesia; for Percent Reduction in Isoflurane: 60 mg/kg i.p., relative to 1.2% isoflurane
# Procedure: The MAC value is the minimum alveolar concentration of anesthetic at 1 atm that produces immobility in 50% of the subjects.
# 200 mg of each compound are tested for general anesthesia activity Testing is performed on rats to determine the percent reduction in the use of isoflurane. Inhaled anesthetics still need to be utilized to rapidly adjust the level of anesthesia. Since no single anesthetic is capable of all four requirements for anesthesia, a combination is utilized. The rats were first anesthetized with isoflurane, intubated, ventilated and then a femoral line was inserted. After the rat had been stable for 15 minutes, the initial minimum alveolar concentration (MAC) value was determined. […] After 30 minutes the second MAC value was determined post administration. Finally, after one hour the third MAC value was determined. At each MAC determination, a sample of blood was taken to determine pH, pCO2, and pO2. The results of the compounds tested to date are compared to the lead compound 17.
# (§2) A classical comparison of log P and MAC reduction was investigated. A graph representing the effects of log P on the biological activity is presented in graphic form (See FIG. 1). The general anesthetic activity of compounds 20-23 and 36-43 were compared to lead compound 17 as represented in the graph (FIG. 1) and in Table 1. The partition coefficient, P, is a measure of the way the compound distributes itself between octanol and water. […] Therefore, meta-substituted derivatives 20 will be the focus of future synthesize. Bulky substituents on the alcohol were also found to have low activity.
# [4] = tested on: blood pressure / hemodynamics; experiment: Hemodynamic effects during isoflurane anesthesia; type: in vivo, rats; details: rats, 60 mg/kg i.p., isoflurane anesthesia
# Procedure: 200 mg of each compound are tested for general anesthesia activity Testing is performed on rats to determine the percent reduction in the use of isoflurane. Inhaled anesthetics still need to be utilized to rapidly adjust the level of anesthesia. Since no single anesthetic is capable of all four requirements for anesthesia, a combination is utilized. The rats were first anesthetized with isoflurane, intubated, ventilated and then a femoral line was inserted. After the rat had been stable for 15 minutes, the initial minimum alveolar concentration (MAC) value was determined. Then, 60 mg/kg of drug was sonicated in 3 mL of peanut oil and injected (i.p.). After 30 minutes the second MAC value was determined post administration. Finally, after one hour the third MAC value was determined. At each MAC determination, a sample of blood was taken to determine pH, pCO2, and pO2. The results of the compounds tested to date are compared to the lead compound 17.
# toxicity, lethal dose = experiment: Toxicity / lethal dose noted with general anesthetic activity comparison; type: in vivo; details: for lethal dose: in vivo; for toxicity: same dosage = 300 mg/kg
# Description: as §2
# [5] = tested on: loss of righting reflex or other toxic effects on spinning rod; experiment: Toxicity test (TOX), spinning rod, mice i.p. (NIH); type: in vivo; details: for TOX, animals affected/animals tested: mice i.p.
# Procedure: as §1
# [6] = tested on: seizures induced by maximal electroshock (MES); experiment: Maximal electroshock (MES) test, rat oral (NIH); type: in vivo, rats; details: 30 mg/kg; for MES, animals protected/animals tested: rat oral
# Procedure: as §1
# [7] = tested on: loss of righting reflex or other toxic effects on spinning rod; experiment: Toxicity test (TOX), spinning rod, rat oral (NIH); type: in vivo, rats; details: 30 mg/kg
# Procedure: as §1
# [8] = 300 mg/kg, 0.5 hours, footnotes: loss of righting reflex (and one death for Cmp 20, 21)
# [9] = 300 mg/kg, 4.0 hours, footnote c: loss of righting reflex (Cmp 20, 21)
Compound,"SCMET, animals protected/animals tested ([1]; 30 mg/kg, 0.5 hours)","SCMET, animals protected/animals tested ([1]; 30 mg/kg, 4.0 hours)","SCMET, animals protected/animals tested ([1]; 100 mg/kg, 0.5 hours)","SCMET, animals protected/animals tested ([1]; 100 mg/kg, 4.0 hours)","MES, animals protected/animals tested ([2]; 30 mg/kg, 0.5 hours)","MES, animals protected/animals tested ([2]; 30 mg/kg, 4.0 hours)","MES, animals protected/animals tested ([2]; 100 mg/kg, 0.5 hours)","MES, animals protected/animals tested ([2]; 100 mg/kg, 4.0 hours)","MES, animals protected/animals tested ([2]; 300 mg/kg, 0.5 hours)",anesthetic activity [3],MAC value of Isoflurane at 60 mg/kg of compound [3] [%],Percent Reduction in Isoflurane [3] [%],Hemodynamic Effects [4],"toxicity (toxicity, lethal dose)","TOX, animals affected/animals tested ([5]; 30 mg/kg, 0.5 hours)","TOX, animals affected/animals tested ([5]; 30 mg/kg, 4.0 hours)","TOX, animals affected/animals tested ([5]; 100 mg/kg, 0.5 hours)","TOX, animals affected/animals tested ([5]; 100 mg/kg, 4.0 hours)","TOX, animals affected/animals tested [5, 8]","TOX, animals affected/animals tested [5, 9]",also measured
NC(=O)C(O)(c1cccc(F)c1)C(F)(F)F (racemic) [Compound 20],2/5,0/1,1/1,1/1,0/1^a,0/1,3/3,3/3,0/0,high activity,0.70,42,lowers blood,very toxic,0/4,0/2,6/8,0/4,4/4^b,1/1^c,"MES, animals protected/animals tested ([2]; 300 mg/kg, 4.0 hours): 1/1; lethal dose (toxicity, lethal dose): 300 mg/kg"
NC(=O)C(O)(c1ccc(Cl)cc1)C(F)(F)F (racemic) [Compound 21],0/1,0/1,4/4,1/1,0/1,0/1,0/3,1/3,–,very active,0.65,46,none,toxic at the same dosage,0/4,0/2,6/8,3/4,4/4^b,1/1^c,"SCMET, animals protected/animals tested ([1]; 300 mg/kg, 0.5 hours): 0/0; SCMET, animals protected/animals tested ([1]; 300 mg/kg, 4.0 hours): 1/1; MES, animals protected/animals tested ([6]; 0.25 hrs.): 1/4; MES, animals protected/animals tested ([6]; 0.5 hrs.): 1/4; MES, animals protected/animals tested ([6]; 1.0 hrs.): 1/4; MES, animals protected/animals tested ([6]; 2.0 hrs.): 1/4; MES, animals protected/animals tested ([6]; 4.0 hrs.): 1/4; TOX, animals affected/animals tested ([7]; 0.25 hrs.): 0/4; TOX, animals affected/animals tested ([7]; 0.5 hrs.): 0/4; TOX, animals affected/animals tested ([7]; 1.0 hrs.): 0/4; TOX, animals affected/animals tested ([7]; 2.0 hrs.): 0/4; TOX, animals affected/animals tested ([7]; 4.0 hrs.): 0/4"
O=C1Nc2ccccc2C1(O)C(F)(F)F (centres unmarked) [Compound 22],–,–,–,–,–,–,–,–,–,–,1.05,12.5,none,–,–,–,–,–,–,–,–
CN1C(=O)C(O)(C(F)(F)F)c2ccccc21 (centres unmarked) [Compound 23],1/5,0/1,0/1,0/1,0/1,0/1,3/3,0/3,1/1,–,0.95,20.8,none,–,0/4,0/2,1/8,0/4,4/4^c,1/2,"SCMET, animals protected/animals tested ([1]; 300 mg/kg, 0.5 hours): 1/1; SCMET, animals protected/animals tested ([1]; 300 mg/kg, 4.0 hours): 1/1; MES, animals protected/animals tested ([2]; 300 mg/kg, 4.0 hours): 1/1; MES, animals protected/animals tested ([6]; 0.25 hrs.): 2/4; MES, animals protected/animals tested ([6]; 0.5 hrs.): 1/4; MES, animals protected/animals tested ([6]; 1.0 hrs.): 2/4; MES, animals protected/animals tested ([6]; 2.0 hrs.): 2/4; MES, animals protected/animals tested ([6]; 4.0 hrs.): 2/4; TOX, animals affected/animals tested ([7]; 0.25 hrs.): 0/4; TOX, animals affected/animals tested ([7]; 0.5 hrs.): 0/4; TOX, animals affected/animals tested ([7]; 1.0 hrs.): 0/4; TOX, animals affected/animals tested ([7]; 2.0 hrs.): 0/4; TOX, animals affected/animals tested ([7]; 4.0 hrs.): 0/4"
"NC(=O)C(O)(c1ccc(F)cc1)C(F)(F)F (centres unmarked) [Compound 39, 3,3,3-Trifluoro-2-hydroxy-2-(4-fluoro-phenyl)-propionamide]",–,–,–,–,–,–,–,–,–,very active,–,–,–,toxic at the same dosage,–,–,–,–,–,–,"activity as an anticonvulsant in scMET assay ([1]; species and dose not stated): demonstrated activity; MES, mice protected ([2]; 100 mg/kg, duration of 0.5 hours): 5 out of 5; MES, mice protected ([2]; 100 mg/kg, duration of 1 hour): 2 out of 3; animals with a 100% reduction in Isoflurane MAC ([3]; 300 mg/kg): 3 out of 4; MES, rats protected ([6]; phase I oral rat, duration of 2 hours): 4 out of 4; Neurotoxicity, mice unable to grasp rod ([5]; mice, 100 mg/kg, duration of 0.5 hours): seven of eight"
NC(=O)C(O)(c1ccccc1)C(F)(F)Cl (centres unmarked) [Compound 42],–,–,–,–,–,–,–,–,–,high activity,–,–,–,very toxic,–,–,–,–,–,–,"lethal dose (toxicity, lethal dose): 300 mg/kg"
